The record followed here is US8211935B2, “Heterocyclic derivatives for modulation of calcium channels” (Vertex Pharmaceuticals Incorporated, priority 2004, dated 2012).

The target of this assay is T1, CaV2.2 (Homo sapiens, UniProt Q00975).
T1 construct: expressed in transfected cells; host or cells: HEK293
Put plainly: VIPR optical membrane potential assay with electrical stimulation. The class given is cell-based. The procedure:
Antagonist properties of test compounds were assessed as follows. Cells expressing the CaV of interest were placed into microtiter plates. After an incubation period, the cells were stained with fluorescent dyes sensitive to the transmembrane potential. The test compounds were added to the microtiter plate. The cells were stimulated with electrical means to evoke a CaV dependent membrane potential change from unblocked channels, which was detected and measured with trans-membrane potential-sensitive dyes. Antagonists were detected as a decreased membrane potential response to the stimulus.
VIPR® Optical Membrane Potential Assay Method with Electrical Stimulation
The following is an example of how CaV2.2 inhibition activity is measured using the optical membrane potential method. Other subtypes are performed in an analogous mode in a cell line expressing the CaV of interest.
HEK293 cells stably expressing CaV2.2 are plated into 96-well microtiter plates. After an appropriate incubation period, the cells are stained with the voltage sensitive dyes CC2-DMPE/DiSBAC2(3) as follows.
2×CC2-DMPE=20 μM CC2-DMPE: 10 mM CC2-DMPE is vortexed with an equivalent volume of 10% Pluronic, followed by vortexing in required amount of HBSS containing 10 mM HEPES. Each cell plate will require 5 mL of 2×CC2-DMPE. 50 μL of 2×CC2-DMPE is added to wells containing washed cells, resulting in a 10 μM final staining concentration. The cells are stained for 30 minutes in the dark at RT.
Vortex in required amount of Bath X with beta-cyclodextrin. Each 96 well cell plate will require 5 ml of 2×CC2DMPE. Wash plate with ELx405 with Bath X, leaving a residual volume of 50 μL/well. Add 50 μL of 2×CC2DMPE & DISBAC6(3) to each well. Stain for 30 minutes in the dark at RT.
Allow solution to sit for 10 minutes. Slowly mix in 370 mM BaCl2. This solution can be used to solvate compound plates. Note that compound plates are made at 1.5× drug concentration and not the usual 2×. Wash CC2 stained plate, again, leaving residual volume of 50 pt. Add 100 uL/well of the AY17 solution. Stain for 15 minutes in the dark at RT. Run plate on the optical reader.
The instrument comprises a microtiter plate handler, an optical system for exciting the coumarin dye while simultaneously recording the coumarin and oxonol emissions, a waveform generator, a current- or voltage-controlled amplifier, and a device for inserting electrodes in well. Under integrated computer control, this instrument passes user-programmed electrical stimulus protocols to cells within the wells of the microtiter plate.
Insert or use electrodes into each well to be assayed.
Use the current-controlled amplifier to deliver stimulation wave pulses for 3-5 s. Two seconds of pre-stimulus recording are performed to obtain the un-stimulated intensities. Five seconds of post-stimulation recording are performed to examine the relaxation to the resting state.
Data are analyzed and reported as normalized ratios of background-subtracted emission intensities measured in the 460 nm and 580 nm channels. Background intensities are then subtracted from each assay channel. Background intensities are obtained by measuring the emission intensities during the same time periods from identically treated assay wells in which there are no cells. The response as a function of time is then reported as the ratios obtained using the following formula: […]
The data is further reduced by calculating the initial (Ri) and final (Rf) ratios. These are the average ratio values during part or all of the pre-stimulation period, and during sample points during the stimulation period. The response to the stimulus R=Rf/Ri is then calculated.
Control responses are obtained by performing assays in the presence of a compound with the desired properties (positive control), such as mibefradil, and in the absence of pharmacological agents (negative control). Responses to the negative (N) and positive (P) controls are calculated as above.

Where [1] appears, read: Table 3, biological assay data, read-out: IC50.

Like-named read-outs stand apart in the source and are kept apart here.

The IC50 is the midpoint of a concentration-inhibition curve.

T1 sequence (Q00975 whole entry): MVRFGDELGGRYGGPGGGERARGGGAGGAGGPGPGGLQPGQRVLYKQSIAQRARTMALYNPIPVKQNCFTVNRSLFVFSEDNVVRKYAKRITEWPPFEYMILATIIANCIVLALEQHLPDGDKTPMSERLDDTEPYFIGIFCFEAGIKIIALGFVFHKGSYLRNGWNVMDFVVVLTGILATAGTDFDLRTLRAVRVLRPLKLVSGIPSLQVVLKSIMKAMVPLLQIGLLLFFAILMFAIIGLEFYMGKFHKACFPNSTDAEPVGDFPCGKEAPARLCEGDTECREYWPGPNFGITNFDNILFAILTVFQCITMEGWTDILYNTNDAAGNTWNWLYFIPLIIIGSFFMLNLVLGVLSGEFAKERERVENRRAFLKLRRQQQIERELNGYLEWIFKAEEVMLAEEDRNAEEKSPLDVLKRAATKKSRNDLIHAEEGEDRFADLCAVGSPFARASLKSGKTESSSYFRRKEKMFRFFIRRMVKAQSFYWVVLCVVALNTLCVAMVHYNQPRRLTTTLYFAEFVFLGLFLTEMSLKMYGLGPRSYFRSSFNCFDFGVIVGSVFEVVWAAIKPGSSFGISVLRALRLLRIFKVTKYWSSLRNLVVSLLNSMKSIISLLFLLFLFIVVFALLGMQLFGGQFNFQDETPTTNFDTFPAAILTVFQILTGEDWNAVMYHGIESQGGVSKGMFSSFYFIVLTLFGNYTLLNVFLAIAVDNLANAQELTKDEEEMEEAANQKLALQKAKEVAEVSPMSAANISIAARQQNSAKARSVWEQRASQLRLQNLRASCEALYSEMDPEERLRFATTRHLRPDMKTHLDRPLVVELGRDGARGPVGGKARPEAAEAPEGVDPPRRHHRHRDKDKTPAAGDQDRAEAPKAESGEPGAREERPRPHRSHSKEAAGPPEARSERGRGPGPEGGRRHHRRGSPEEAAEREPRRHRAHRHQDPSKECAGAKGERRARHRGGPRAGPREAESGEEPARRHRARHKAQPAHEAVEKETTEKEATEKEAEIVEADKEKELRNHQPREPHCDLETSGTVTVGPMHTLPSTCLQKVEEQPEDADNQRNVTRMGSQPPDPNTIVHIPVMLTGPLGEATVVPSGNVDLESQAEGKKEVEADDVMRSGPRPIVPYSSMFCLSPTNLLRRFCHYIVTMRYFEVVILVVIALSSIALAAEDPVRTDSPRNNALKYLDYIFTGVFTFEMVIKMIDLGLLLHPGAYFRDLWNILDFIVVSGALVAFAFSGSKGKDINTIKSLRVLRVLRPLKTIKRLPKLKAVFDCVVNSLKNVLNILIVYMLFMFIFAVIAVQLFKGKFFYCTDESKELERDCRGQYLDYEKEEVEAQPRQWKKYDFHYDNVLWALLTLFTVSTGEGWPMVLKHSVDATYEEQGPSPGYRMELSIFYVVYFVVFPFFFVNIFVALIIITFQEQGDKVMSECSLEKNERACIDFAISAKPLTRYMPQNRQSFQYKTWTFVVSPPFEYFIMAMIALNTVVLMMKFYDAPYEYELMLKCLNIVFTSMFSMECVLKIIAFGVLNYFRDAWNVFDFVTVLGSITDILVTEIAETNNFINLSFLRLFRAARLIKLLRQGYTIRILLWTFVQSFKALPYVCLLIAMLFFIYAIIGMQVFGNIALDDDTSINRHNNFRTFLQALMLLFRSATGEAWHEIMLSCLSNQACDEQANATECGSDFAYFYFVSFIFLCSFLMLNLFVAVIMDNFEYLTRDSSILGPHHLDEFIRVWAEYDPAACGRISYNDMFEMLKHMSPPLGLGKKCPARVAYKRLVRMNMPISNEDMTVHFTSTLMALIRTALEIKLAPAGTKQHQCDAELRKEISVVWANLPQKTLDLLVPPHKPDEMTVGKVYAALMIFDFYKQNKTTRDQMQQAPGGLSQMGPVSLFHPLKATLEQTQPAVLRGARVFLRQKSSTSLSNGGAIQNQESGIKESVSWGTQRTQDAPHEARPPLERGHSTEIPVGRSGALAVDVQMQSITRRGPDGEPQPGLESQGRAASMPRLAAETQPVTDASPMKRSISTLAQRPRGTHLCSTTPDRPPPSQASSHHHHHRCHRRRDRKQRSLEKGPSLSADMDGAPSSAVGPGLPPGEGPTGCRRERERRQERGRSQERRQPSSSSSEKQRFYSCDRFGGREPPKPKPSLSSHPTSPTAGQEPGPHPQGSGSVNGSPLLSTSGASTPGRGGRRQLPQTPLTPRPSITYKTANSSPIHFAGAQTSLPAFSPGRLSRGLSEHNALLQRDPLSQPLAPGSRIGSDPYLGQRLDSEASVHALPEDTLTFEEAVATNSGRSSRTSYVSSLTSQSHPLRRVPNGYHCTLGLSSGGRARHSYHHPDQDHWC
T1 sequence (P54284 whole entry partner): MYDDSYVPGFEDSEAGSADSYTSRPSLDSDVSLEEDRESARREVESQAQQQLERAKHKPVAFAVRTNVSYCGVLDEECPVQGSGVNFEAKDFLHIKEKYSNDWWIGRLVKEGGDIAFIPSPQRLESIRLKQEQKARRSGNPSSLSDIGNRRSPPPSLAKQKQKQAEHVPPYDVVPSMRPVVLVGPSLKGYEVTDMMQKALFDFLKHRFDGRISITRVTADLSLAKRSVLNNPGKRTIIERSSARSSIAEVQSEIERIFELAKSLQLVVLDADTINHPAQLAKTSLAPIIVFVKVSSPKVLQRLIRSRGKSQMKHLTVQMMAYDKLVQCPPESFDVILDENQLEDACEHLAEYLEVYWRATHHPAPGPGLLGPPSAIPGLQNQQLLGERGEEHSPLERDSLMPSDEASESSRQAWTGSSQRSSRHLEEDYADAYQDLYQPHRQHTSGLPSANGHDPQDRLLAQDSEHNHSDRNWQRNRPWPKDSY
T1 sequence (P54289 25-946 partner limits assumed): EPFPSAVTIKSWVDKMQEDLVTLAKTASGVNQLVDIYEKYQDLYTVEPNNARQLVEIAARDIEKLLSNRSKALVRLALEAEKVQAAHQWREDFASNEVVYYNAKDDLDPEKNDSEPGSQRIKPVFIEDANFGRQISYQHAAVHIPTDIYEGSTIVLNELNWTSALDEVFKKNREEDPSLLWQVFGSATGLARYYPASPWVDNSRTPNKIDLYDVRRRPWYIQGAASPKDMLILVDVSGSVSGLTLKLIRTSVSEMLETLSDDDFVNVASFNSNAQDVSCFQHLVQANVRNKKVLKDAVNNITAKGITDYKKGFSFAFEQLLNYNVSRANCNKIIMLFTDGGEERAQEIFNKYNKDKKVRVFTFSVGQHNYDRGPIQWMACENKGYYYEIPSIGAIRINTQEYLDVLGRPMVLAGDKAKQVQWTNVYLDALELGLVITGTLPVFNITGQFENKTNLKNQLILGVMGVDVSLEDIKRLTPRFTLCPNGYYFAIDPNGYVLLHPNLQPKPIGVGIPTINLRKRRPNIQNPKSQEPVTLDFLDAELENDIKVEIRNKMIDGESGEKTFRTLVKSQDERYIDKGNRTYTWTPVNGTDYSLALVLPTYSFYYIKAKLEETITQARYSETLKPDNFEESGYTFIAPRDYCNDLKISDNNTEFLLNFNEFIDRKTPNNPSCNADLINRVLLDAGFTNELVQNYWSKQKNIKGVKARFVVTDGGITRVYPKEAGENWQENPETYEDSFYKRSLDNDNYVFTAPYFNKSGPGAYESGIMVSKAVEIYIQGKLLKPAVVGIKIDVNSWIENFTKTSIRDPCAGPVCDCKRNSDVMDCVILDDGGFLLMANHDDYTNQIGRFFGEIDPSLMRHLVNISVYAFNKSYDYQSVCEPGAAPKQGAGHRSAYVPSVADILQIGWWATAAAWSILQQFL
T1 sequence (P54289 947-1103 partner limits assumed): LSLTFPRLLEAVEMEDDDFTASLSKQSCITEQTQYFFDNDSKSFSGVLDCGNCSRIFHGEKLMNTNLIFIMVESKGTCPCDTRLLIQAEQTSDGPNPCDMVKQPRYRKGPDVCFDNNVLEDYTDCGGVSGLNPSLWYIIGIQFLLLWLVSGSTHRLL

In the case of `Cc1c(C(=O)N2CCCC(C)C2)oc2ccc(S(=O)(=O)N3CCC(C)CC3)cc12` (centres unmarked) [compound 58], under setting [1], the 50% inhibitory concentration (IC50) was 5 to 20 µM. On the same count and under the same terms, the value for `Cc1c(C(=O)N2CCCCC2C)oc2ccc(S(=O)(=O)N3CCCCC3)cc12` (centres unmarked) [compound 59] was 5 to 20 µM. Still for that read-out and setting: the value for `Cc1c(C(=O)N2CC(C)CC(C)C2)[nH]c2ccc(S(=O)(=O)N3CC(C)CC(C)C3)cc12` (centres unmarked) [compound 60] was < 5 µM; that for `Cc1c(C(=O)N2CCCCC2C)oc2ccc(S(=O)(=O)N3CCCC(C)C3)cc12` (centres unmarked) [compound 61] was 5 to 20 µM. Same read-out and setting: in the case of `Cc1c(C(=O)NC2CCCCC2)oc2ccc(S(=O)(=O)N3CC(C)CC(C)C3)cc12` (centres unmarked) [compound 62] it was < 5 µM; in that of `Cc1c(C(=O)NCc2cccnc2)oc2ccc(S(=O)(=O)N3CC(C)CC(C)C3)cc12` (centres unmarked) [compound 63], 5 to 20 µM.

With `Cc1c(C(=O)N2CCCCC2)oc2ccc(S(=O)(=O)N3CCCCC3)cc12` [compound 64], under setting [1], the 50% inhibitory concentration (IC50) lay in the range of 5 to 20 µM. The same measure, in the same setting: the value for `Cc1c(C(=O)N2CCCCC2)oc2ccc(S(=O)(=O)N3CCOCC3)cc12` [compound 65] was < 20 µM; that for `O=C(NC1CC1)c1cc2cc(N(Cc3ccccc3)S(=O)(=O)c3ccccc3)ccc2[nH]1` [compound 66] was 5 to 20 µM; that for `CC(C)N(C(=O)c1cc2cc(S(=O)(=O)N3CCCCCC3)ccc2o1)C(C)C` [compound 67] was < 5 µM. The same measure, in the same setting: in the case of `Cc1c(C(=O)NCC2CCCO2)[nH]c2ccc(S(=O)(=O)N3CCCCCC3)cc12` (centres unmarked) [compound 68] it was 5 to 20 µM. `Cc1c(C(=O)N2CCCCC2)[nH]c2ccc(S(=O)(=O)N3CCCCCC3)cc12` [compound 69]: the half-inhibitory concentration (IC50) under setting [1] lay in the range of 5 to 20 µM. Same read-out and setting: in the case of `CCN1CCN(C(=O)c2oc3ccc(S(=O)(=O)N4CCCCCC4)cc3c2C)CC1` [compound 70] it was 5 to 20 µM; in that of `O=C(NC1CC1)c1cc2cc(NS(=O)(=O)C3CC3)ccc2[nH]1` [compound 71], < 20 µM; in that of `CCOC(=O)N1CCN(C(=O)c2cc3cc(S(=O)(=O)N4CCCCCC4)ccc3[nH]2)CC1` [compound 72], 5 to 20 µM.

Turning to `Cc1c(C(=O)NCc2ccccn2)oc2ccc(S(=O)(=O)N3CC(C)CC(C)C3)cc12` (centres unmarked) [compound 73], the IC50 under setting [1] is < 20 µM.

Regarding `Cc1c(C(=O)N2CCCCC2)[nH]c2ccc(S(=O)(=O)N3CCC(C)CC3)cc12` [compound 74], under setting [1], the IC50 was < 5 µM.

As to `Cc1c(C(=O)NC2CCCCC2)oc2ccc(S(=O)(=O)N3CCOCC3)cc12` [compound 75], the IC50 under setting [1] is < 20 µM.

As to `COc1ccccc1CNC(=O)c1oc2ccc(S(=O)(=O)N3CCCCC3)cc2c1C` [compound 76], the IC50 under setting [1] is 5 to 20 µM. On the same count and under the same terms, in the case of `CCNC(=O)c1cc2cc(S(=O)(=O)N3CCCCCC3)ccc2[nH]1` [compound 77] it was < 5 µM; in that of `Cc1c(C(=O)NCCC2CCOCC2)[nH]c2ccc(S(=O)(=O)N3CC(C)CC(C)C3)cc12` (centres unmarked) [compound 78], 5 to 20 µM. The same measure, in the same setting: in the case of `Cc1c(C(=O)NCCCN2CCOCC2)oc2ccc(S(=O)(=O)N3CC(C)CC(C)C3)cc12` (centres unmarked) [compound 79] it was < 5 µM; in that of `Cc1c(C(=O)NCC2CCCCC2)oc2ccc(S(=O)(=O)N3CCC(C)CC3)cc12` [compound 80], 5 to 20 µM; in that of `Cc1c(C(=O)N2CCCC(C)C2)[nH]c2ccc(S(=O)(=O)N3CCC(C)CC3)cc12` (centres unmarked) [compound 81], < 5 µM.

For `CC1CC(C)CN(S(=O)(=O)c2ccc3oc(C(=O)N4CCN(C)CC4)cc3c2)C1` (centres unmarked) [compound 82], under setting [1], the IC50 lay in the range of 5 to 20 µM. Same read-out and setting: the value for `CCCCN(C)C(=O)c1cc2cc(S(=O)(=O)N3CCC(C)CC3)ccc2o1` [compound 83] was < 5 µM; that for `CCOC(=O)N1CCN(C(=O)c2cc3cc(S(=O)(=O)N4CCC(C)CC4)ccc3[nH]2)CC1` [compound 84] was < 5 µM; that for `CCN(CC)S(=O)(=O)c1ccc2oc(C(=O)N3CCc4ccccc4C3)c(C)c2c1` [compound 85] was < 5 µM. Same read-out and setting: the value for `Cc1ccc(CNC(=O)c2oc3ccc(S(=O)(=O)N4CCCC4)cc3c2C)cc1` [compound 86] was 5 to 20 µM; that for `CCN(CC)S(=O)(=O)c1ccc2oc(C(=O)NC3CCCC3)c(C)c2c1` [compound 87] was < 5 µM; that for `CCOC(=O)N1CCN(C(=O)c2oc3ccc(S(=O)(=O)N4CCC(C)CC4)cc3c2C)CC1` [compound 88] was < 5 µM. In the case of `Cc1c(C(=O)N(C)Cc2ccccc2)oc2ccc(S(=O)(=O)N3CC(C)CC(C)C3)cc12` (centres unmarked) [compound 89], the half-maximal inhibitory concentration (IC50) is < 5 µM. For `CC1CCN(S(=O)(=O)c2ccc3oc(C(=O)NCCCc4ccccc4)cc3c2)CC1` [compound 90], the half-inhibitory concentration (IC50) under setting [1] is < 5 µM. The same measure, in the same setting: the value for `CC1CC(C)CN(S(=O)(=O)c2ccc3[nH]c(C(=O)N4CCN(C)CC4)cc3c2)C1` (centres unmarked) [compound 91] was 5 to 20 µM. On the same count and under the same terms, the value for `CCN(CC)C(=O)c1oc2ccc(S(=O)(=O)N3CCCCCC3)cc2c1C` [compound 92] was 5 to 20 µM. On the same count and under the same terms, in the case of `Cc1c(C(=O)N(C)Cc2ccccc2)oc2ccc(S(=O)(=O)N3CCCCC3)cc12` [compound 93] it was < 5 µM. For the compound `Cc1c(C(=O)NCCCc2ccccc2)oc2ccc(S(=O)(=O)N3CCCCCC3)cc12` [compound 94], the IC50 under setting [1] lay within 5 to 20 µM. Same read-out and setting: in the case of `CCCCN(C)C(=O)c1oc2ccc(S(=O)(=O)N(CC)CC)cc2c1C` [compound 95] it was 5 to 20 µM; in that of `O=C(c1cc2cc(S(=O)(=O)N3CCCCCC3)ccc2o1)N1CCCCC1` [compound 96], 5 to 20 µM. Same read-out and setting: in the case of `CC1CCN(S(=O)(=O)c2ccc3oc(C(=O)NCCc4ccccc4)cc3c2)CC1` [compound 97] it was 5 to 20 µM; in that of `CC1CCN(S(=O)(=O)c2ccc3[nH]c(C(=O)NCCCc4ccccc4)cc3c2)CC1` [compound 98], < 5 µM. Same read-out and setting: the value for `CC1CC(C)CN(S(=O)(=O)c2ccc3oc(C(=O)N4CCCCC4)cc3c2)C1` (centres unmarked) [compound 100] was < 5 µM. For the compound `CC1CCN(S(=O)(=O)c2ccc3[nH]c(C(=O)N4CCCC(C)C4)cc3c2)CC1` (centres unmarked) [compound 101], the 50% inhibitory concentration (IC50) under setting [1] was < 5 µM. On the same count and under the same terms, the value for `Cc1c(C(=O)N2CCCC(C)C2)oc2ccc(S(=O)(=O)N3CCCCCC3)cc12` (centres unmarked) [compound 102] was < 5 µM; that for `Cc1c(C(=O)N2CCC(C)CC2)[nH]c2ccc(S(=O)(=O)N3CC(C)CC(C)C3)cc12` (centres unmarked) [compound 103] was < 5 µM; that for `CC1CCN(S(=O)(=O)c2ccc3[nH]c(C(=O)N4CCCC4)cc3c2)CC1` [compound 104] was 5 to 20 µM. Still for that read-out and setting: the value for `O=C(NC1CC1)c1cc2cc(N(CC3CC3)S(=O)(=O)c3ccccc3)ccc2[nH]1` [compound 105] was 5 to 20 µM. For the compound `CC1CCN(S(=O)(=O)c2ccc3oc(C(=O)N4CCC5(CC4)OCCO5)cc3c2)CC1` [compound 106], the IC50 is < 20 µM. `CC1CC(C)CN(S(=O)(=O)c2ccc3c(c2)cc(C(=O)N2CCCCC2)n3S(=O)(=O)c2ccc(F)cc2)C1` (centres unmarked) [compound 107]: the IC50 under setting [1] was < 5 µM. With `CC1CCN(S(=O)(=O)c2ccc3[nH]c(CNC4CC4)cc3c2)CC1` [compound 108], the half-inhibitory concentration (IC50) under setting [1] is < 5 µM. For the compound `Cc1c(C(=O)NC2CCCc3ccccc32)oc2ccc(S(=O)(=O)N3CCOCC3)cc12` (centres unmarked) [compound 109], the IC50 under setting [1] is < 20 µM. On the same count and under the same terms, the value for `Cc1c(C(=O)NC(C)C)oc2ccc(S(=O)(=O)N3CCCCCC3)cc12` [compound 110] was 5 to 20 µM; that for `CC1CCN(S(=O)(=O)c2ccc3oc(C(=O)NCC4CCOCC4)cc3c2)CC1` [compound 111] was 5 to 20 µM; that for `CCN(CC)S(=O)(=O)c1ccc2oc(C(=O)N3CCCCC3C)c(C)c2c1` (centres unmarked) [compound 112] was 5 to 20 µM.

Regarding `CCCCN(C)C(=O)c1cc2cc(S(=O)(=O)N3CCCCCC3)ccc2o1` [compound 113], the concentration for half-maximal inhibition (IC50) under setting [1] was < 5 µM. As to `Cc1c(C(=O)NCCN2CCOCC2)oc2ccc(S(=O)(=O)N3CCCCCC3)cc12` [compound 114], under setting [1], the IC50 was 5 to 20 µM.
